Source: EPA's ToxValDB 9.5
Several values for one entry are separate records, joined by “and”; a condition that tells them apart may be missing. Equal entries are not always repeated.

Tests used:
Coturnix japonica = conditions: repeat dose other; oral
Rattus norvegicus [1] = conditions: repeat dose other; oral
Rattus norvegicus [2] = conditions: uterotrophic; duration: 3 days; injection; intraperitoneal; Active
Neovison sp. = conditions: repeat dose other; oral; Mink
Rattus norvegicus [3] = conditions: short-term; duration: 28 days; oral; gavage; unknown; Wistar; renal
Rattus norvegicus [4] = conditions: subchronic, M/F
Rattus norvegicus [5] = conditions: subchronic; duration: 90 days; oral; gavage; Blood: Increased alkaline phosphatase + Blood: Increased SGPT + Brain: Decreased weight
Primate = conditions: inhalation
Rattus norvegicus [6] = conditions: Sprague-Dawley
Mus musculus [7] = conditions: for LOAEL / NOAEL: inhalation
Anas platyrhynchos = conditions: oral
Mus musculus [8] = conditions: oral, M/F; for NOEL: duration: 2 years, Albino, increased liver weight
Canidae [9] = test system: Canidae
Mus musculus [10] = conditions: subchronic; duration: 13 weeks; oral; diet; Testis: Damage
Rattus norvegicus [11] = conditions: subchronic, oral, Fischer 344
Cavia porcellus = conditions: acute, Guinea Pig
Rattus norvegicus [12] = conditions: duration: 2 years, oral, M/F, Crl, Reduced bodyweight gain
Canidae [13] = conditions: oral, capsule, M/F, Histopathological changes in the spleen and bone marrow indicative of anaemia
[14] = reproduction developmental, duration: 6 days, Macaca Fascicularis
[15] = developmental, duration: 11 days, inhalation
[16] = short-term, duration: 4 weeks, inhalation
[17] = subchronic, duration: 90 days, oral, gavage
[18] = reproduction developmental, duration: 20 days, F, CD1
[19] = chronic, duration: 78 weeks, diet, CD1, Increased incidences of fatty change & hypertrophy in hepatocytes
[20] = duration: 90 days, oral, reduced body weight and neurotoxicity

## [Mn+2].[Mn+3].[Mn+3].[O-2].[O-2].[O-2].[O-2] [Manganese oxide (Mn3O4)]
Coturnix japonica
  NOAEL: 997 mg/kg-day
Rattus norvegicus [1]
  LOAEL: 284 mg/kg-day
  NOAEL: 88 mg/kg-day

## [Cl][Hg][Cl] [Mercuric chloride]
Rattus norvegicus [2]
  LEL: 1 mg/kg-day
Coturnix japonica
  LOAEL: 0.9 mg/kg-day
  NOAEL: 0.45 mg/kg-day
Neovison sp.
  NOAEL: 1 mg/kg-day
Rattus norvegicus [3]
  LOAEL: 0.015 mg/kg-day
Rattus norvegicus [4]; injection, subcutaneous, autoimmune effects (autoimmune glomerulonephritis)
  LOAEL: 0.226 mg/kg-day
Rattus norvegicus [4]; oral, diet, autoimmune effects (autoimmune glomerulonephritis)
  LOAEL: 0.317 mg/kg-day and 0.633 mg/kg-day

## CO [Methanol]
Rattus norvegicus [5]
  NOEL: 500 mg/kg-day
Primate; developmental, duration: 120 days, Macaca Fascicularis
  NOAEL: > 2360 mg/m3
Primate; [14]
  LOAEL: 6550 mg/m3
  NOAEL: 3930 mg/m3
Primate; reproduction developmental, duration: 120 days, F, Macaca Fascicularis
  NOAEL: > 2360 mg/m3
Primate; reproduction developmental, duration: 365 days, generation: F0
  NOAEL: > 2360 mg/m3
Rattus norvegicus [6]; [15]
  LOAEL: ≤ 6550 mg/m3
  NOAEL: ≥ 1310 mg/m3
Rattus norvegicus [6]; developmental, duration: 19 days, inhalation
  LOAEL: ≤ 26200 mg/m3
Rattus norvegicus [6]; reproduction developmental, duration: 11 days, inhalation, F
  NOAEL: > 1310 mg/m3
Rattus norvegicus [6]; reproduction developmental, duration: 19 days, inhalation, F
  LOAEL: ≤ 26200 mg/m3
Rattus norvegicus [6]; reproduction developmental, duration: 365 days, inhalation, generation: F0
  NOAEL: 131 mg/m3
Rattus norvegicus [6]; reproduction developmental, duration: 365 days, inhalation, generation: F1
  NOAEL: 131 mg/m3
Rattus norvegicus [6]; reproduction developmental, duration: 365 days, inhalation, generation: F2
  NOAEL: 131 mg/m3
Rattus norvegicus [6]; [16]
  LOAEL: 6550 mg/m3
  NOAEL: ≥ 3930 mg/m3
Rattus norvegicus [6]; [17]
  LOAEL: 2500 mg/kg-day
  NOAEL: > 500 mg/kg-day
Mus musculus [7]; developmental, duration: 10 days, CD1
  LOAEL: 2620 mg/m3
Mus musculus [7]; developmental, duration: 20 days, CD1
  LOAEL: 13100 mg/m3
Mus musculus [7]; reproduction developmental, duration: 18 months, B6C3F1
  NOAEL: > 1310 mg/m3
Mus musculus [7]; reproduction developmental, duration: 10 days, F, CD1
  NOAEL: > 19700 mg/m3
Mus musculus [7]; [18]
  LOAEL: ≤ 19700 mg/m3
  NOAEL: ≥ 13100 mg/m3
Rattus norvegicus [1]
  LOAEL: 250 mg/kg-day
  NOAEL: 50 mg/kg-day

## [CH3][Hg]/[N]=C(\N)NC#N [Methyl mercury dicyandiamide]
Anas platyrhynchos
  LOAEL: 0.064 mg/kg-day
  NOAEL: 0.0064 mg/kg-day

## C[C@](C#N)(COc1cc(C#N)ccc1C(F)(F)F)NC(=O)c1ccc(SC(F)(F)F)cc1 [Monepantel]
Mus musculus [8]; [19]
  LOAEL: 5.5 mg/kg-day
  NOAEL: 1.8 mg/kg-day

## c1ccc(Nc2cccc3ccccc23)cc1 [N-Phenyl-1-naphthylamine]
Canidae [9]; chronic, duration: 36 months, oral, diet, Dog Other
  NOAEL: 290 mg/kg-day

## O=C1CN(/N=C/c2ccc([N+](=O)[O-])o2)C(=O)N1 [Nitrofurantoin]
Mus musculus [10]
  NOAEL: 59.1 mg/kg-day
Rattus norvegicus [11]; duration: 13 weeks, diet, M/F, Deaths + Body Weight Changes: decrease + Urinalysis: Bright yellow + Absolute Organ Weight: Liver increase + Relative Organ Weight: Liver …
  NOEL: < 57.6 mg/kg-day

## CCCCCCCC/C=C\CCCCCCCC(=O)O [Oleic acid]
Cavia porcellus; dermal
  LD50: > 3000 mg/kg

## O=[Se]([O-])[O-].[Na+].[Na+] [Sodium selenite]
Rattus norvegicus [11]; drinking water, F, Deaths + Body Weight Changes: decrease + Water Consumption: decrease + Hematology: Hct increase, Hgb increase, RBC increase + Blood …
  NOEL: 0.17 mg/kg-day
Rattus norvegicus [11]; drinking water, M/F, Deaths + Body Weight Changes: decrease + Water Consumption: decrease + Hematology: Hct increase, Hgb increase, RBC increase + Blood …
  NOEL: 0.304 mg/kg-day
Anas platyrhynchos
  LOAEL: 1 mg/kg-day
  NOAEL: 0.5 mg/kg-day

## O=C1OC(=O)C2CC=CCC12 (centres undefined) [Tetrahydrophthalic anhydride]
Cavia porcellus; oral
  LD50: 3500 mg/kg
Mus musculus [7]; acute, oral
  LD50: 3300 mg/kg

## c1ccc2[nH]c(-c3cscn3)nc2c1 [Thiabendazole]
Rattus norvegicus [12]; chronic, diet
  LOEL: 40 mg/kg-day
  NOEL: 10 mg/kg-day
Rattus norvegicus [12]; feed
  LOEL: 40 mg/kg-day
  NOEL: 10 mg/kg-day
Canidae [13]; chronic, duration: 1 years, Beagle
  NOEL: 10 mg/kg-day
Canidae [13]; chronic, duration: 1 years, Dog Other
  NOEL: 10 mg/kg-day
Canidae [13]; duration: 1 year, Beagle
  NOEL: 10 mg/kg-day
Canidae [13]; duration: 1 year, Dog Other
  NOEL: 10 mg/kg-day

## CSc1nc2cc(Oc3cccc(Cl)c3Cl)c(Cl)cc2[nH]1 [Triclabendazole]
Mus musculus [8]; Chronic / dietary, feed
  NOEL: 0.27 mg/kg-day
Mus musculus [8]; chronic, diet
  NOEL: 0.27 mg/kg-day

## FC(F)F [Trifluoromethane]
Canidae [9]; repeat dose other, inhalation, Beagle
  LOAEL: > 14300 mg/m3

## Cc1ccccc1O [o-Cresol]
Neovison sp.
  NOAEL: 219 mg/kg-day
Rattus norvegicus [4]; [20]
  LOAEL: 150 mg/kg-day
  NOAEL: 50 mg/kg-day
